The structures appear in SMILES notation.

Consider 30 compounds from publication PMC6017732, “Identification and Characterizations of Novel, Selective Histone Methyltransferase SET7 Inhibitors by Scaffold Hopping- and 2D-Molecular Fingerprint-Based Similarity Search” (Molecules : A Journal of Synthetic Chemistry and Natural …, 2018).

For the first test, the target named is T1, SET7 (Homo sapiens, UniProt Q8WTS6).
T1 sequence (Q8WTS6 1-366): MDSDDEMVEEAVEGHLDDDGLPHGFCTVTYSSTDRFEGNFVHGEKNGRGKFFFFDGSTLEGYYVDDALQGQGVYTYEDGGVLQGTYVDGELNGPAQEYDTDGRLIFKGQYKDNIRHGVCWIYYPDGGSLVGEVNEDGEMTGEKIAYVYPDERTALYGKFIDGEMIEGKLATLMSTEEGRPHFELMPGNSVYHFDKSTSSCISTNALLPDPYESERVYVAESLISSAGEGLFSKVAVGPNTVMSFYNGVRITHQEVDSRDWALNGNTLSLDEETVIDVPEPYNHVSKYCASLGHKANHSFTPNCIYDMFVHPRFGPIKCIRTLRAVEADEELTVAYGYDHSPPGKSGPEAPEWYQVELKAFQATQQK
In words: AlphaLISA SET7 inhibition assay. It counts as biochemical. The following applies: AlphaLISA assay, SAR discussion. As to the method:
AlphaLISA assays were applied to determine the inhibitory activity targeting SET7. The purified SET7 protein was incubated in modified Tris buffer in 384-well plates (Perkin Elmer, Cat. No. 6007299, Waltham, MA, USA) at room temperature for 15 min. The compounds were transferred to the assay plate using Echo in 100% DMSO, and substrate solution was added to each well to start the reaction. Acceptor and donor beads were added and incubated for 60 min at room temperature, shielded from light. The endpoint was evaluated with EndSpire in Alpha mode. The experimental data was fitted in GraphPad Prism 5 to obtain inhibition values using the equation as follows:(1) Inhibition %= Max−Siginal/Max−Min×100%
(Bead proximity is the source of the signal in Alpha formats.)
Turning to `COc1cc(/C=N/NC(=O)c2ccc(-c3ccccc3)cc2)c([N+](=O)[O-])cc1OC` [DC-S305], the “activity against SET7 (in words)” value is “no activity”.

The test is the same for the next values; noted with them: AlphaLISA assay, SET7.
A word on the IC50: it is the midpoint of a concentration-inhibition curve. In turn, `COc1cc(/C=N/NC(=O)c2ccc(-c3ccccc3)cc2)ccc1OC(C)=O` [DC-S306] registered an IC50 of 20 µM.

The compound `O=C(CCC(=O)N/N=C/c1cc([N+](=O)[O-])ccc1Cl)NCc1ccccc1` [DC-S314] displayed a half-inhibitory concentration (IC50) of 46 µM.

`O=C(NNC(=O)c1ccc([N+](=O)[O-])cc1)c1ccc(-c2ccccc2)cc1` [DC-S334]: it took 9.9 µM to reach half-maximal inhibition (IC50).

The same test, now with this note: AlphaLISA assay, SET7, 100 μM; read-out: Inhibition Ratio at 100 μM/%.
For the compound `O=C(N/N=C/c1ccc(Cl)c([N+](=O)[O-])c1)c1ccc(-c2ccccc2)cc1` [DC-S304], the inhibition at 100 µM is 44%.

Turning to `COc1cc(/C=N/NC(=O)c2ccc(-c3ccccc3)cc2)c([N+](=O)[O-])cc1OC` [DC-S305], the inhibition at 100 µM was -5%.

Regarding `COc1cc(/C=N/NC(=O)c2ccc(-c3ccccc3)cc2)ccc1OC(C)=O` [DC-S306], the inhibition at 100 µM worked out at 94%.

`COc1ccc(/C=N/NC(=O)c2ccc(-c3ccccc3)cc2)cc1O` [DC-S307]: the inhibition at 100 µM came out at 8%.

Take `COc1ccc(/C=N/NC(=O)c2ccc(-c3ccccc3)cc2)c(OC)c1Br` [DC-S308]: the inhibition at 100 µM stood at 7%.

With `Cc1cccc(/C=N/NC(=O)c2ccc(-c3ccccc3)cc2)c1` [DC-S309], the inhibition at 100 µM is -5%.

In the case of `CCOc1ccc(/C=N/NC(=O)c2ccc(-c3ccccc3)cc2)c(OCC)c1` [DC-S310], the inhibition at 100 µM was -6%.

Turning to `O=C(N/N=C/c1cccc(Cl)c1Cl)c1ccc(-c2ccccc2)cc1` [DC-S312], the inhibition at 100 µM was -3%.

Consider `O=C(N/N=C/c1c(Cl)cccc1Cl)c1ccc(-c2ccccc2)cc1` [DC-S313], for which the inhibition at 100 µM is -6%.

In the case of `O=C(CCC(=O)N/N=C/c1cc([N+](=O)[O-])ccc1Cl)NCc1ccccc1` [DC-S314], the inhibition at 100 µM worked out at 77%.

Take `O=C(N/N=C/c1cc([N+](=O)[O-])ccc1Cl)C(c1ccccc1)c1ccccc1` [DC-S315]: the inhibition at 100 µM stood at 46%.

As for `O=C(N/N=C/c1cc([N+](=O)[O-])ccc1Cl)c1cccc(O)c1` [DC-S316], the inhibition at 100 µM was 37%.

In the case of `COC(=O)N/N=C/c1cc([N+](=O)[O-])ccc1Cl` [DC-S318], the inhibition at 100 µM came to 17%.

`Nc1ccccc1C(=O)N/N=C/c1cc([N+](=O)[O-])ccc1Cl` [DC-S319]: the inhibition at 100 µM was 14%.

Take `O=C(N/N=C/c1cc([N+](=O)[O-])ccc1Cl)c1ccc(O)cc1` [DC-S320]: the inhibition at 100 µM was 11%.

As to `O=C(N/N=C/c1cc([N+](=O)[O-])ccc1Cl)c1ccc(O)cc1O` [DC-S321], the inhibition at 100 µM is 9%.

Regarding `O=C(NNC(=O)c1ccc([N+](=O)[O-])cc1)c1ccc(-c2ccccc2)cc1` [DC-S334], the inhibition at 100 µM worked out at 96%.

Take `O=C(NNC(=O)c1cccc([N+](=O)[O-])c1)c1ccc(-c2ccccc2)cc1` [DC-S335]: the inhibition at 100 µM is 12%.

Regarding `COc1ccc(C(=O)NNC(=O)c2ccc(-c3ccccc3)cc2)cc1` [DC-S336], the inhibition at 100 µM was 49%.

Turning to `O=C(NNC(=O)c1ccc(-c2ccccc2)cc1)c1ccccc1` [DC-S337], the inhibition at 100 µM was determined as 1%.

On to `O=C(NNC(=O)c1cccc(Cl)c1)c1ccc(-c2ccccc2)cc1` [DC-S338], for which the inhibition at 100 µM was determined as 1%.

With `O=C(NNC(=O)c1ccc(-c2ccccc2)cc1)c1ccc(F)cc1` [DC-S339], the inhibition at 100 µM was -6%.

Take `O=C(CCc1ccccc1)NNC(=O)c1ccc(-c2ccccc2)cc1` [DC-S340]: the inhibition at 100 µM is -6%.

On to `O=C(NNC(=O)c1ccccc1C(=O)O)c1ccc(-c2ccccc2)cc1` [DC-S341], for which the inhibition at 100 µM is -10%.

On to `O=C(NNC(=O)C(F)(F)F)c1ccc(-c2ccccc2)cc1` [DC-S342], for which the inhibition at 100 µM is -13%.

As to `O=C(NN=Cc1ccc(Cl)s1)c1ccc([N+](=O)[O-])cc1` [DC-S344], the inhibition at 100 µM came out at 32%.

Take `O=C(NN=Cc1cccc(Cl)c1)c1ccc([N+](=O)[O-])cc1` [DC-S345]: the inhibition at 100 µM is 29%.

Regarding `Nc1ccc(C=NNC(=O)c2ccc([N+](=O)[O-])cc2)cc1` [DC-S346], the inhibition at 100 µM is 21%.

On to `O=C(NN=Cc1ccc[nH]1)c1ccc([N+](=O)[O-])cc1` [DC-S347], for which the inhibition at 100 µM amounted to 10%.

For the compound `Cc1c(C=NNC(=O)c2ccc([N+](=O)[O-])cc2)cnn1C` [DC-S348], the inhibition at 100 µM is -11%.
